Experimental data: ChEMBL document CHEMBL5291721, “A preclinical secondary pharmacology resource illuminates target-adverse drug reaction associations of marketed drugs” (Nat Commun, 2023)

Columns and labels:
[1] = target: Gamma-aminobutyric acid receptor subunit alpha-1 (Rattus norvegicus, UniProt P62813)
Adenosine receptor A3 = target: T1, Adenosine receptor A3 (Homo sapiens, UniProt P0DMS8)
T1 sequence (P0DMS8 whole entry): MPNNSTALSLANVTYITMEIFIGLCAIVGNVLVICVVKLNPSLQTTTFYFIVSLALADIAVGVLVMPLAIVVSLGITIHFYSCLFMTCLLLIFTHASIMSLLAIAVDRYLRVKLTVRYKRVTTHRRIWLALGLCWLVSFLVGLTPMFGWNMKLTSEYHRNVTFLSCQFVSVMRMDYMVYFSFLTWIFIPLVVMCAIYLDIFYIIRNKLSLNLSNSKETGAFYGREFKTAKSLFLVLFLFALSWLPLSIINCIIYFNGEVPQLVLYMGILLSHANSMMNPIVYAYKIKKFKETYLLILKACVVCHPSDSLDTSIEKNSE

[2] = target: T2, 5-hydroxytryptamine receptor 1A (Homo sapiens, UniProt P08908); format: functional, cell-based
T2 sequence (P08908 whole entry): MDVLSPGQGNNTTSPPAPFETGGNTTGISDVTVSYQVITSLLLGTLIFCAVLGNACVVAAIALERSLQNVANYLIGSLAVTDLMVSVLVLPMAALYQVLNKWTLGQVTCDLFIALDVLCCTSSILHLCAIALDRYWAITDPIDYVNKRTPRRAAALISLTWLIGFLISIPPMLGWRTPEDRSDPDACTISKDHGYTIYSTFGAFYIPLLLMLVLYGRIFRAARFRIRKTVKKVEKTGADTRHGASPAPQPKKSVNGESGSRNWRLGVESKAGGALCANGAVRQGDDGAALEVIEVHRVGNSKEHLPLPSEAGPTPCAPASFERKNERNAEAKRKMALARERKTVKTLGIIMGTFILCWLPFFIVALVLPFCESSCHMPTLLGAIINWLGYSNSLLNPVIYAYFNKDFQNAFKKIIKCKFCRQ

Cannabinoid receptor 1 = Cannabinoid receptor 1 (Homo sapiens, UniProt P21554); format: functional, cell-based
[3] = target: T3, Alpha-1A adrenergic receptor (Homo sapiens, UniProt P35348); format: functional, cell-based
T3 sequence (P35348 whole entry): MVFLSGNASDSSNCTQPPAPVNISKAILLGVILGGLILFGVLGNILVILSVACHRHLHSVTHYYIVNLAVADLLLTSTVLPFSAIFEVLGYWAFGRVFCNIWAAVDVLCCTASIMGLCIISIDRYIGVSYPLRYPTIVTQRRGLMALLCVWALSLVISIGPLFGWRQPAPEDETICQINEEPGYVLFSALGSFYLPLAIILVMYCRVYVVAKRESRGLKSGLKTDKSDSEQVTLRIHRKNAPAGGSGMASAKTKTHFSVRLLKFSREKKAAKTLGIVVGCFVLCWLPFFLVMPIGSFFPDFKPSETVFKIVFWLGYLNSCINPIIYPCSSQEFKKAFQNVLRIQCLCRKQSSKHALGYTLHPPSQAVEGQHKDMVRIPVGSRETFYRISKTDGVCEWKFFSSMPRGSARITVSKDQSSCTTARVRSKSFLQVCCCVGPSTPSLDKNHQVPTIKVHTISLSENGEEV

[4] = target: Beta-2 adrenergic receptor (Homo sapiens, UniProt P07550); format: functional, cell-based
[5] = target: T4, Muscarinic acetylcholine receptor M2 (Homo sapiens, UniProt P08172); format: functional, cell-based
T4 sequence (P08172 whole entry): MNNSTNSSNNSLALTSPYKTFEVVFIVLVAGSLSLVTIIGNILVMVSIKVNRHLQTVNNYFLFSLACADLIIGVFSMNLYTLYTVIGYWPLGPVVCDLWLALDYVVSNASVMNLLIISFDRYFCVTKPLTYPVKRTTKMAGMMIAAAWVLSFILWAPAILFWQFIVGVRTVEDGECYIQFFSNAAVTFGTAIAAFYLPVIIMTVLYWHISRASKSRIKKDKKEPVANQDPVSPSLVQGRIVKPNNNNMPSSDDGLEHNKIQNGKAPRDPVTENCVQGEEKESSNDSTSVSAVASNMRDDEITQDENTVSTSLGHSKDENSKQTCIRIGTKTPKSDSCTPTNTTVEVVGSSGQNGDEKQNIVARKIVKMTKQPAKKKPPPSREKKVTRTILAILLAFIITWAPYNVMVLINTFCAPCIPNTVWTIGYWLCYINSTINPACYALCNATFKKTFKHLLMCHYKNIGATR

Bile salt export pump = Bile salt export pump (Homo sapiens, UniProt O95342); format: functional
[6] = target: T5, Gastrin/cholecystokinin type B receptor (Homo sapiens, UniProt P32239)
T5 sequence (P32239 whole entry): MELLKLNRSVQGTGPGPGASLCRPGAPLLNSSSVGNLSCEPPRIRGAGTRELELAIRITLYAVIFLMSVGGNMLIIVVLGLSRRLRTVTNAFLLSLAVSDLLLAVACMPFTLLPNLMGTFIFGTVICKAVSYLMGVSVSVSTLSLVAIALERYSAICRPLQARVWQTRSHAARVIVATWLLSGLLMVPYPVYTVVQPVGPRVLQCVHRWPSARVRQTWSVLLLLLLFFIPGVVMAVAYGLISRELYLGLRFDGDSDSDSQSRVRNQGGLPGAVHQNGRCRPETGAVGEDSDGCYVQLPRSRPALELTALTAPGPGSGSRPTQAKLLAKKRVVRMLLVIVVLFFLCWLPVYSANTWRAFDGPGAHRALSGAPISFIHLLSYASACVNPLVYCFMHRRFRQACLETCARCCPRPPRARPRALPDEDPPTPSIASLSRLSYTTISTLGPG
Also: assay procedure not described here.

Chain of Cannabinoid receptor 1 (P21554 whole entry): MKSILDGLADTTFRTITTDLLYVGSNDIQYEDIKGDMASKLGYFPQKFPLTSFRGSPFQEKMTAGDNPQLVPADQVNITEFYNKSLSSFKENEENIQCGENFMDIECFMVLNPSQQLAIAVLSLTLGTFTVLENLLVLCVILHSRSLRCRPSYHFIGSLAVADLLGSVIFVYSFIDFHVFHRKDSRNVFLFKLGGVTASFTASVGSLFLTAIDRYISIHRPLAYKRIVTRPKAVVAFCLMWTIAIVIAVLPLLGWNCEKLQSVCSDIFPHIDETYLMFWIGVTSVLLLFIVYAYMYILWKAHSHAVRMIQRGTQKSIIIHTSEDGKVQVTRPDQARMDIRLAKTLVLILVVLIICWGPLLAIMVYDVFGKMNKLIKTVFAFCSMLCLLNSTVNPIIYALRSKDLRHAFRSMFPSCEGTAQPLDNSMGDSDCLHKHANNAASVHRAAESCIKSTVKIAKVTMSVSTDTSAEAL
Chain of Gamma-aminobutyric acid receptor subunit alpha-1 (P62813 whole entry): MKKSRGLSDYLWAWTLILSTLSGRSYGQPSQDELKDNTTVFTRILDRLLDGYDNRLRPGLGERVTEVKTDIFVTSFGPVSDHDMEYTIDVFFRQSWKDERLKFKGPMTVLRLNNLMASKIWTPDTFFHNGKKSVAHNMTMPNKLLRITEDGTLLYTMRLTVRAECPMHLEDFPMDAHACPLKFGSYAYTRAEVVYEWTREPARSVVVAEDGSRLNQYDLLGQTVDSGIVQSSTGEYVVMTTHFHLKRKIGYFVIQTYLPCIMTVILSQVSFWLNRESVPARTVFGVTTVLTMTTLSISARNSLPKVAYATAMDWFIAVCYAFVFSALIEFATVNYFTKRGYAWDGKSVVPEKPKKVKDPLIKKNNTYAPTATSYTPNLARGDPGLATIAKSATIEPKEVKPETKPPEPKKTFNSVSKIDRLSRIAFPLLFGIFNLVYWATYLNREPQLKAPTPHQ
Chain of Bile salt export pump (O95342 whole entry): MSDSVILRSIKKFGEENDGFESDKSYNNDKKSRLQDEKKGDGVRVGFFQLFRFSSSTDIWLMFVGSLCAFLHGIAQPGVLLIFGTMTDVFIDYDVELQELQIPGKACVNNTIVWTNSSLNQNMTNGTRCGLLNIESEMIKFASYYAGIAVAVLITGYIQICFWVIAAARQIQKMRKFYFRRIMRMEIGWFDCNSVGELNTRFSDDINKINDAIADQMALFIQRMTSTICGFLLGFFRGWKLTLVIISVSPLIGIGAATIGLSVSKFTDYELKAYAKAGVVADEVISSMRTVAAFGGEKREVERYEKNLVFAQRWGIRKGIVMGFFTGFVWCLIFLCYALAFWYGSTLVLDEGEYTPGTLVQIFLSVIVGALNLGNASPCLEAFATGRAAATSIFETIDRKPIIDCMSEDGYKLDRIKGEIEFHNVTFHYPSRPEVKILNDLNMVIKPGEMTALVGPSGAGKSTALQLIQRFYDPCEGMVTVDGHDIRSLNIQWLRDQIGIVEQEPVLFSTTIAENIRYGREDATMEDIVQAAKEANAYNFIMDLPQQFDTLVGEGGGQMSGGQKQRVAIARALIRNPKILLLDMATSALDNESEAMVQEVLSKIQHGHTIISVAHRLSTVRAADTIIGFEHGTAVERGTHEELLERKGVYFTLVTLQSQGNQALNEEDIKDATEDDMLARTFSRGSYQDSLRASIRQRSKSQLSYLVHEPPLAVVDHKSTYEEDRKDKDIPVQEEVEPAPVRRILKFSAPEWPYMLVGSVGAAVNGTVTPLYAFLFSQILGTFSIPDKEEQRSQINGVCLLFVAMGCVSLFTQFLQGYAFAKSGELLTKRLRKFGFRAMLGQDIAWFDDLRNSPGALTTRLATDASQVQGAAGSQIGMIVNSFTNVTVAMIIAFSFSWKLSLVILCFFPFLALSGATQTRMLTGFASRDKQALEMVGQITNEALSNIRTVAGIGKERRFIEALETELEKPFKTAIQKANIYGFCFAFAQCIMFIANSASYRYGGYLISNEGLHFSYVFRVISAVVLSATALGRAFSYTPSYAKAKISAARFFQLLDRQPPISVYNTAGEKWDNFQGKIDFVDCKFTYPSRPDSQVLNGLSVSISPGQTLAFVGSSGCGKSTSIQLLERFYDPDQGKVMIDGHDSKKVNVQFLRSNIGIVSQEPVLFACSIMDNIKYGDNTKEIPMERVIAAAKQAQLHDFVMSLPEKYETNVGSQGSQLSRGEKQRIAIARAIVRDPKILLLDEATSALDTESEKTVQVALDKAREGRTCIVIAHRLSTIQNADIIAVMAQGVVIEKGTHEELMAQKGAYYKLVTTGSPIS
Chain of Beta-2 adrenergic receptor (P07550 whole entry): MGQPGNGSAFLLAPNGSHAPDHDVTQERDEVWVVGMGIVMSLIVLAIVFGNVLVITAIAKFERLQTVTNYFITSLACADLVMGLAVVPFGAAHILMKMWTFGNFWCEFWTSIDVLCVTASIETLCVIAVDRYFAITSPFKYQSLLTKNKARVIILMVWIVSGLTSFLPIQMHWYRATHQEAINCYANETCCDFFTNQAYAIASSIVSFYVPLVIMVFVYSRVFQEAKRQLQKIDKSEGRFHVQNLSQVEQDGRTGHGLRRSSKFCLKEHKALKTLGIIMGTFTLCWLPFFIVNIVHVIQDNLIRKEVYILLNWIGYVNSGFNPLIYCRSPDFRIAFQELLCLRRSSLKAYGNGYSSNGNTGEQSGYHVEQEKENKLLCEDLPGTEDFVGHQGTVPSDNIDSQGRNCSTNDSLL

Structure (SMILES) | AC50 [1] [µM] | AC50 (Adenosine receptor A3) [µM] | further results
CC[C@@H]1C[C@]1(NC(=O)[C@@H]1C[C@@H]2CN1C(=O)[C@H](C(C)(C)C)NC(=O)OCC(C)(C)CCCCc1cccc3c1CN(C3)C(=O)O2)C(=O)NS(=O)(=O)C1CC1 | > 30 | 12.6 | –
CC(=O)NCCCCCC(=O)O [ACEXAMIC ACID] | – | > 30 | –
C=C(C)CNc1ccc(C(C)C(=O)O)cc1 (stereo unspecified) [ALMINOPROFEN] | – | > 30 | –
CC(C)NC(=N)NC(=N)Nc1ccc(Cl)c(Cl)c1 [CHLORPROGUANIL] | > 30 | – | AC50 [2]: > 30 µM; AC50 (Cannabinoid receptor 1): > 30 µM; AC50 [3]: > 30 µM; AC50 [4]: > 30 µM
Cc1cc(C2CCCCC2)n(O)c(=O)c1 [CICLOPIROX] | – | > 30 | AC50 [3]: > 30 µM; AC50 [5]: > 30 µM
C[N+](C)(C)CCOP(=O)(O)OP(=O)([O-])OC[C@H]1O[C@@H](n2ccc(N)nc2=O)[C@H](O)[C@@H]1O [CITICOLINE] | > 30 | – | AC50 [2]: > 30 µM; AC50 (Cannabinoid receptor 1): > 30 µM; AC50 [3]: > 30 µM; AC50 [5]: > 30 µM; AC50 [4]: > 30 µM
C[C@H]1O[C@@H](O[C@H]2CC[C@@]3(C)[C@H](CC[C@@H]4[C@@H]3C[C@@H](O)[C@]3(C)[C@@H](C5=CC(=O)OC5)CC[C@]43O)C2)C[C@H](O)[C@@H]1O[C@H]1C[C@H](O)[C@H](O[C@H]2C[C@H](O)[C@H](O[C@@H]3O[C@H](CO)[C@@H](O)[C@H](O)[C@H]3O)[C@@H](C)O2)[C@@H](C)O1 [DESLANOSIDE] | – | > 30 | –
CN[C@@H]1[C@H](O[C@H]2[C@H](O[C@H]3[C@H](O)[C@@H](O)[C@H](NC(=N)N)[C@@H](O)[C@@H]3NC(=N)N)O[C@@H](C)[C@]2(O)CO)O[C@@H](CO)[C@H](O)[C@H]1O [DIHYDROSTREPTOMYCIN] | > 30 | – | –
CC[C@H]1OC(=O)[C@H](C)[C@@H](O[C@H]2C[C@@](C)(OC)[C@@H](O)[C@H](C)O2)[C@H](C)[C@@H](O[C@@H]2O[C@H](C)C[C@H](N(C)C)[C@H]2O)[C@](C)(O)C[C@@H](C)[C@@H]2N[C@@H](COCCOC)O[C@H]([C@H]2C)[C@]1(C)O [DIRITHROMYCIN] | > 30 | – | –
CCCCc1oc2ccc(NS(C)(=O)=O)cc2c1C(=O)c1ccc(OCCCN(CCCC)CCCC)cc1 [DRONEDARONE] | > 30 | 1.54 | –
CNC[C@H](O)c1ccc(O)c(O)c1 [EPINEPHRINE] | – | – | AC50 (Cannabinoid receptor 1): > 30 µM; AC50 (Bile salt export pump): > 300 µM; AC50 [5]: > 30 µM
O=C(O)Cc1ccccc1Oc1ccc(Cl)cc1Cl [FENCLOFENAC] | > 30 | > 30 | AC50 [2]: > 10 µM; AC50 (Cannabinoid receptor 1): > 30 µM; AC50 [3]: > 30 µM; AC50 [6]: > 30 µM; AC50 [5]: > 10 µM; AC50 [4]: > 30 µM
CC(C)C(=O)Oc1ccc(CO)cc1[C@H](CCN(C(C)C)C(C)C)c1ccccc1 [FESOTERODINE] | > 30 | > 30 | –
CC1(C)O[C@@H]2C[C@H]3[C@@H]4C[C@H](F)C5=CC(=O)C=C[C@]5(C)[C@@]4(F)[C@@H](O)C[C@]3(C)[C@]2(C(=O)CO)O1 [FLUOCINOLONE ACETONIDE] | – | > 30 | –
O=C(O)P(=O)(O)O [FOSCARNET] | > 30 | > 30 | –
C#C[C@]1(O)C=C[C@H]2[C@@H]3CCC4=CC(=O)CC[C@@H]4[C@H]3CC[C@@]21CC [GESTODENE] | 2.16 | – | –
COc1ccccc1OC1(C)OC(=O)c2ccccc2O1 (stereo unspecified) [GUAIMESAL] | > 30 | – | AC50 [6]: > 30 µM
N=C(N)N/N=C/c1c(Cl)cccc1Cl [GUANABENZ] | – | > 30 | –
C[N+](C)(CCCCCC[N+](C)(C)C1c2ccccc2-c2ccccc21)C1c2ccccc2-c2ccccc21 [HEXAFLUORENIUM] | > 30 | > 30 | –
CCCCC(CC)CN1CN(CC(CC)CCCC)CC(C)(N)C1 (stereo unspecified) [HEXETIDINE] | > 30 | 10.8 | –

Structure (SMILES) | AC50 [1] [µM] | AC50 (Adenosine receptor A3) [µM] | further results
COc1c2occc2c(OC)c2c(=O)cc(C)oc12 [KHELLIN] | > 30 | > 30 | –
CC(C)[C@@H]1CC[C@@H](C)C[C@H]1O [LEVOMENTHOL] | – | > 30 | –
COC(=O)[C@@H](N)Cc1ccc(O)c(O)c1 [MELEVODOPA] | > 30 | > 30 | –
C=N[C@@H](C(=O)N[C@@H]1C(=O)N2[C@@H]1SC(C)(C)[C@@H]2C(=O)O)c1ccccc1 [METAMPICILLIN] | > 30 | > 30 | –
O=C(NNCS(=O)(=O)O)c1ccncc1 [METHANIAZIDE] | > 30 | > 30 | –
Cc1cc(=O)[nH]c(=S)[nH]1 [METHYLTHIOURACIL] | > 30 | > 30 | –
CCNC(=O)/C=C(C)/C=C/C=C(C)/C=C/c1c(C)cc(OC)c(C)c1C [MOTRETINIDE] | – | 2.24 | –
CNC(=C[N+](=O)[O-])NCCSCc1csc(CN(C)C)n1 [NIZATIDINE] | – | – | AC50 [2]: > 10 µM; AC50 (Bile salt export pump): > 300 µM; AC50 [5]: > 10 µM
COc1ccc2[nH]c([S+]([O-])Cc3ncc(C)c(OC)c3C)nc2c1 (stereo unspecified) [OMEPRAZOLE] | – | 2.88 | –
CCCCC1C(=O)N(c2ccccc2)N(c2ccc(O)cc2)C1=O (stereo unspecified) [OXYPHENBUTAZONE ANHYDROUS] | > 30 | > 30 | –
O=C(O)CN(CCN(CC(=O)O)CC(=O)O)CCN(CC(=O)O)CC(=O)O [PENTETIC ACID] | > 30 | > 30 | –
Nc1cccc2c1C(=O)N(C1CCC(=O)NC1=O)C2=O (stereo unspecified) [POMALIDOMIDE] | > 30 | > 30 | –
CCCc1cc(=O)[nH]c(=S)[nH]1 [PROPYLTHIOURACIL] | – | – | AC50 [2]: > 10 µM; AC50 (Bile salt export pump): > 300 µM; AC50 [5]: > 10 µM
C[Se]CC[C@H](N)C(=O)O [SELENOMETHIONINE] | > 30 | > 30 | –
Cc1ccsc1C(=CCCN1CCC[C@@H](C(=O)O)C1)c1sccc1C [TIAGABINE] | – | > 30 | –
C[C@]12C=CC(=O)C=C1CC[C@H]1[C@@H]3C[C@@H](O)[C@](O)(C(=O)CO)[C@@]3(C)C[C@H](O)[C@@]12F [TRIAMCINOLONE] | > 30 | > 30 | –
CC(C)C[C@H](NC(=O)[C@@H](O)[C@H](N)Cc1ccccc1)C(=O)O [UBENIMEX] | > 30 | – | AC50 [2]: > 30 µM; AC50 (Cannabinoid receptor 1): > 30 µM; AC50 [3]: > 30 µM; AC50 [5]: > 30 µM; AC50 [4]: > 30 µM
CC[C@]12CCCN3CCc4c(n(c5ccccc45)[C@@](O)(C(=O)OC)C1)[C@@H]32 [VINCAMINE] | > 30 | > 30 | –
CCC1=C[C@@H]2CN(C1)Cc1c([nH]c3ccccc13)[C@@](C(=O)OC)(c1cc3c(cc1OC)N(C)[C@H]1[C@@](O)(C(=O)OC)[C@H](OC(C)=O)[C@]4(CC)C=CCN5CC[C@]31[C@@H]54)C2 [VINORELBINE] | – | > 30 | –
